Counter-ions that a name gives are not always drawn.
Tests used:
[1] = Metabolic stability in liver microsomes, LC-MS analysis; format: in vitro ADME; details: compound 5 μM, microsomes 1 mg/ml, NADPH-generating system, 60 minutes at 37 degrees Celsius
Description: Sub-cellular tissue preparations were made according to Gorrod et al. (Xenobiotica 5: 453-462, 1975) by centrifugal separation after mechanical homogenization of tissue. Liver tissue was rinsed in ice-cold 0.1 M Tris-HCl (pH 7.4) buffer to wash excess blood. Tissue was then blotted dry, weighed and chopped coarsely using surgical scissors. The tissue pieces were homogenized in 3 volumes of ice-cold 0.1 M phosphate buffer (pH 7.4).
Tissue homogenates were centrifuged at 9000×g for 20 minutes at 4° C. The resulting supernatant was stored at −80° C. and is designated ‘S9’.
The S9 fraction can be further centrifuged at 100.000×g for 60 minutes (4° C.). The resulting supernatant was carefully aspirated, aliquoted and designated ‘cytosol’. The pellet was re-suspended in 0.1 M phosphate buffer (pH 7.4) in a final volume of 1 ml per 0.5 g original tissue weight and designated ‘microsomes’.
All sub-cellular fractions were aliquoted, immediately frozen in liquid nitrogen and stored at −80° C. until use.
For the samples to be tested, the incubation mixture contained PBS (0.1M), compound (5 μM), microsomes (1 mg/ml) and a NADPH-generating system (0.8 mM glucose-6-phosphate, 0.8 mM magnesium chloride and 0.8 Units of glucose-6-phosphate dehydrogenase). Control samples contained the same material but the microsomes were replaced by heat inactivated (10 minutes at 95 degrees Celsius) microsomes. Recovery of the compounds in the control samples was always 100%.
The mixtures were preincubated for 5 minutes at 37 degrees Celsius. The reaction was started at time point zero (t=0) by addition of 0.8 mM NADP and the samples were incubated for 60 minutes (t=60). The reaction was terminated by the addition of 2 volumes of DMSO. Then the samples were centrifuged for 10 minutes at 900×g and the supernatants were stored at room temperature for no longer as 24 hours before analysis. All incubations were performed in duplo. Analysis of the supernatants was performed with LC-MS analysis. Elution of the samples was performed on a Xterra MS C18 (50×4.6 mm, 5 μm, Waters, US). An Alliance 2790 (Supplier: Waters, US) HPLC system was used. Elution was with buffer A (25 mM ammoniumacetate (pH 5.2) in H2O/acetonitrile (95/5)), solvent B being acetonitrile and solvent C methanol at a flow rate of 2.4 ml/min. The gradient employed was increasing the organic phase concentration from 0% over 50% B and 50% C in 5 min up to 100% B in 1 minute in a linear fashion and organic phase concentration was kept stationary for an additional 1.5 minutes. Total injection volume of the samples was 25 μl.
A Quatro triple quadrupole mass spectrometer fitted with and ESP source was used as detector. The source and the desolvation temperature were set at 120 and 350° C. respectively and nitrogen was used as nebuliser and drying gas. Data were acquired in positive scan mode (single ion reaction). Cone voltage was set at 10 V and the dwell time was 1 second.
Metabolic stability was expressed as % metabolism of the compound after 60 minutes (equation given as example) of incubation in the presence of active microsomes (E(act))

[2] = biological target: T1, h5-HT4b (Homo sapiens, UniProt Q13639); experiment: 5HT4 antagonism: [3H]GR113808 binding to membranes of h5-HT4b-HEK 293 clone 9 cells; details: displacement of [3H]GR113808 0.1 nM, h5-HT4b-HEK 293 membranes, 30 min at 25° C.; read-out: pIC50 (5HT4 antagonistic data) (converted)
T1 construct: expressed in transfected cells; host or cells: HEK 293 (clone 9), membrane preparation
Description: h5-HT4b-HEK 293 clone 9 cells were cultured in 150 mm Petri dishes and washed twice with cold PBS. The cells were then scraped from the plates and suspended in 50 mM Tris-HCl buffer, pH 7.4 and harvested by centrifugation at 23,500 rpm for 10 minutes. The pellet was resuspended in 5 mM Tris-HCl, pH 7.4 and homogenized with an Ultra Turrax homogenizer. The membranes were collected by centrifugation at 30,000 rpm for 20 min, resuspended in 50 mM Tris-HCl pH 7.4 and stored at −80° C. For the experiment, assay mixtures (0.5 ml) contained 50 μl of the tritiated ligand (5-HT4 antagonist [^3H]GR113808 0.1 nM) and 0.4 ml membrane preparation (15 μg protein/ml). 50 μl of 10% DMSO was added for total binding. 50 μl of 1 μM of (+)-trans-(1-butyl-3-hydroxy-4-piperidinyl)methyl 8-amino-7-chloro-2,3-dihydro-1,4-benzodioxin-5-carboxylate (a proprietary 5HT4 agonist of Janssen Pharmaceutica) was added for determination of non-specific binding.
The [^3H]GR113808 assay buffer was 50 mM HEPES-NaOH, pH 7.4. The mixtures were incubated for 30 min at 25° C. The incubation was terminated by filtration over a Unifilter 96 GF/B presoaked in 0.1% polyethylenimine, followed by six washing steps with 50 mM HEPES-NaOH, pH 7.4.

T1 sequence (Q13639 whole entry): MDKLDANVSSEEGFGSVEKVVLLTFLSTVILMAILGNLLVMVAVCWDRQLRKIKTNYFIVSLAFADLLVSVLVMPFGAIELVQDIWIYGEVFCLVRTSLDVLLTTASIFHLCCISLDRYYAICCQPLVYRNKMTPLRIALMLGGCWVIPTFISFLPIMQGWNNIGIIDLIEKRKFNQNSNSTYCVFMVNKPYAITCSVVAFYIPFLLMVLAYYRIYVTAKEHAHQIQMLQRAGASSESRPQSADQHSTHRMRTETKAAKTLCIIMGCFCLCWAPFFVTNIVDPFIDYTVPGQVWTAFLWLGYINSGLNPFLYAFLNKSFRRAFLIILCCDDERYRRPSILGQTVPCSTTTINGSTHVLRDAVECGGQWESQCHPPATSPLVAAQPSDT

% metabolized (% metabolised compound after 60 minutes) [1]	melting point	IC50 [2]	SMILES
6%	188 °C	9.55 nM	Cc1cc2c(c(C(=O)NC[C@@H]3CCN(CCCCOc4ccc(C(=O)O)cc4)C[C@H]3O)c1)OCCCO2 [compound 2]
–	175 °C	63.1 nM	Cc1cc2c(c(C(=O)NC[C@@H]3CCN(CCOc4ccc(C(=O)O)cc4)C[C@H]3O)c1)OCCCO2 [compound 6]
14%	148 °C	79.4 nM	O=C(O)c1ccccc1OCCCN1CC[C@@H](CNC(=O)c2cc(Cl)cc3c2OCCCO3)[C@H](O)C1 (relative stereo) [compound 7]
6%	–	13.5 nM	COC1CN(CCCOc2ccc(C(=O)O)cc2)CCC1CNC(=O)c1cc(C)cc2c1OCCCO2 (stereo not shown) [compound 22]
0%	155 °C	8.71 nM	Cc1ccc(C(=O)NC[C@@H]2CCN(CCCOc3ccc(C(=O)O)cc3)C[C@H]2O)c2c1OCCCO2 [compound 14]
–	> 120 °C	–	Cc1ccc(C(=O)NC[C@@H]2CCN(CCOc3ccc(C(=O)O)cc3)C[C@H]2O)c2c1OCCCO2 (hydrate or solvate) [compound 8]
3%	–	7.59 nM	O=C(O)c1ccc(OCCCN2CCC(CNC(=O)c3cc(Cl)c(Cl)c4c3OCCCO4)C(O)C2)cc1 (stereo not shown) [compound 16]
–	200 °C	7.76 nM	CO[C@@H]1CN(CCCOc2ccc(C(=O)O)cc2)CC[C@H]1CNC(=O)c1cc(Cl)c(Cl)c2c1OCCCO2 (relative stereo) [compound 20]
16%	170 °C	4.9 nM	Cc1ccc(C(=O)NC[C@@H]2CCN(CCCCOc3ccc(C(=O)O)cc3)C[C@H]2O)c2c1OCCCO2 [compound 3]
–	179.4 to 189.2 °C	66.1 nM	COc1ccc(C(=O)NCC2CCN(CCCOc3ccc(C(=O)O)cc3)CC2OC)c2c1OCCCO2 (stereo not shown) [compound 21]
–	118 °C	20.9 nM	Cc1cc2c(c(C(=O)NC[C@@H]3CCN(CCCOc4ccc(C(=O)O)cc4)C[C@H]3O)c1)OCCCO2 (relative stereo) [compound 13]
15%	190 °C	5.13 nM	O=C(O)c1ccc(OCCCCN2CC[C@@H](CNC(=O)c3cc(Cl)cc4c3OCCCO4)[C@H](O)C2)cc1 [compound 5]
–	256 °C	–	O=C(O)c1ccc(OCCCN2CCC(CNC(=O)c3cc(Cl)c(Cl)c4c3OCCCO4)C(O)C2)cc1 (stereo not shown) (as salt: HCl) [compound 16]
–	220 to 225 °C	14.5 nM	O=C(O)c1ccc(OCCN2CC[C@@H](CNC(=O)c3cc(Cl)cc4c3OCCCO4)[C@H](O)C2)cc1 [compound 4]
1%	120 °C	8.51 nM	Cc1ccc(C(=O)NC[C@@H]2CCN(CCCOc3cccc(C(=O)O)c3)C[C@H]2O)c2c1OCCCO2 [compound 11]
–	114 °C	–	Cc1cc2c(c(C(=O)NC[C@@H]3CCN(CCCOc4ccccc4C(=O)O)C[C@H]3O)c1)OCCCO2 [Co. No. 1]
6%	–	5.62 nM	O=C(O)c1ccc(OCCCN2CC[C@@H](CNC(=O)c3cc(Cl)c(Br)c4c3OCCCO4)[C@H](O)C2)cc1 (relative stereo) [compound 17]
7.5%	122 °C	11.2 nM	O=C(O)c1ccc(OCCCN2CCC(CNC(=O)c3cc(Cl)cc4c3OCCCO4)C(O)C2)cc1 (stereo not shown) [compound 9]
–	268 °C	–	O=C(O)c1ccc(OCCCN2CC[C@@H](CNC(=O)c3cc(Cl)c(Br)c4c3OCCCO4)[C@H](O)C2)cc1 (relative stereo) (as salt: HCl) (hydrate or solvate) [compound 17]
–	–	42.7 nM	Cc1ccc(C(=O)NC[C@@H]2CCN(CCOc3ccc(C(=O)O)cc3)C[C@H]2O)c2c1OCCCO2 [compound 8]
–	–	120 nM	Cc1cc2c(c(C(=O)NC[C@@H]3CCN(CCCOc4ccccc4C(=O)O)C[C@H]3O)c1)OCCCO2 [compound 1]
0%	122 °C	23.4 nM	Cc1cc2c(c(C(=O)NCC3CCN(CCCOc4cccc(C(=O)O)c4)CC3O)c1)OCCCO2 (stereo not shown) [compound 12]

Source: US7498347B2, “Hydroxycarbonylphenyl substituted 4-(aminomethyl)-piperidine benzamides as 5HT4 antagonists” (Janssen Pharmaceutica, N.V., priority 2004, dated 2009)
